Structures can show the parent of a compound that is named as a salt. Where two headings read alike, the source gives them in different places.
How the values were obtained:
COL17A1 = COL17A1 expression in human epidermal keratinocytes by high content imaging (HCS); format: cell-based
Experimental: The present inventors further searched for substances that induce or maintain the expression of COL17A1. Human epidermal keratinocytes were seeded in 384-well plates, cultured for 48 hours after addition of reagents, immunostained with an anti-COL17A1 antibody and a fluorescently labeled secondary antibody, and then the fluorescence intensity per cell was detected using a high content imaging system (HCS: High Content Screening). In addition to cell counting with DAPI, the expression level of COL17A1 was quantified.

[1] = tested on: human epidermal keratinocytes; test: Colony formation assay using human epidermal keratinocytes; format: cell-based
From the text: To test whether COL17A1-mediated SCD maintains clonal proliferation of epidermal stem cell clones, the present inventors used a colony formation assay, which is an in vitro assay said to be the gold standard for assessing the self-renewal ability of epidermal stem cells, including cells in the tail epidermis.

[2] = Table 1, human epidermal keratinocytes, 48 hours after addition of reagents, fluorescence intensity per cell
[3] = Table 3, anticancer drugs and molecularly targeted drugs

Molecule | COL17A1 expression level (control ratio) (COL17A1; [2]) | Colony area (control ratio) ([1]; Table 1) | Colony number (control ratio) ([1]; Table 1) | COL17A1 expression level (control ratio) (COL17A1; [3]) | further results
c1ccc2c(c1)[I+]c1ccccc1-2 [Diphenyleneiodonium (DPI), Diphenyleneiodonium] | ⊚ (one double circle (⊚) represents a 1.2-fold or greater increase) | ○ | ○ |  | 
O=C(O)c1cccnc1Nc1cccc(C(F)(F)F)c1 [Niflumic Acid] | ⊚ (one double circle (⊚) represents a 1.2-fold or greater increase) |  |  |  | 
C[C@]12C=CC(=O)C=C1CC[C@H]1[C@@H]3C[C@@H](O)[C@](O)(C(=O)CO)[C@@]3(C)C[C@H](O)[C@@]12F [Triamcinolone] | ⊚ (one double circle (⊚) represents a 1.2-fold or greater increase) |  |  |  | 
CC/C(=C(\c1ccccc1)c1ccc(OCCN(C)C)cc1)c1ccccc1 [Tamoxifen citrate] |  |  |  | 0.78 | 
Cn1nnc2c(C(N)=O)ncn2c1=O [Temozolomide] |  |  |  | 0.98 | 
Nc1nc(F)nc2c1ncn2[C@@H]1O[C@H](COP(=O)(O)O)[C@@H](O)[C@@H]1O [Fludarabine phosphate] |  |  |  | 0.90 | 
O=c1[nH]c(=O)n(C2CCCO2)cc1F (stereo not drawn) [Tegafur] |  |  |  | 0.90 | 
CN(C)c1cccc(-c2c3c(=O)n(-c4ccccc4Cl)[nH]c3cc(=O)n2C)c1 [GKT137831] | ○ (one circle (0) represents a 1.0-1.2-fold maintenance) | ○ | ○ |  | 
N=C(N)NN [Aminoguanidine] | ○ (one circle (0) represents a 1.0-1.2-fold maintenance) | ○ | ○ |  | 
COc1ccc(-c2cc(C(F)F)nn2-c2ccc(S(N)(=O)=O)cc2)cc1F [Deracoxib] | ⊚ (one double circle (⊚) represents a 1.2-fold or greater increase) |  |  |  | 
C#C[C@]1(O)CC[C@H]2[C@@H]3CCc4cc(O)ccc4[C@H]3CC[C@@]21C [Ethynyl Estsadiol] | ⊚⊚ (two double circles (⊚⊚) in the COL17A1 expression level (control ratio) represent a 2.0-fold or greater increase in the expression level) | ⊚ (one double circle (⊚) indicates maintenance of 1.0-1.2-fold) | ⊚ (one double circle (⊚) indicates maintenance of 1.0-1.2-fold) |  | 
C[C@H]1C[C@H]2[C@@H]3CCC4=CC(=O)C=C[C@]4(C)[C@@]3(F)[C@@H](O)C[C@]2(C)[C@@]1(O)C(=O)CO [Bethamethazone] | ⊚⊚ (two double circles (⊚⊚) in the COL17A1 expression level (control ratio) represent a 2.0-fold or greater increase in the expression level) |  |  |  | 
C[C@H]1[C@@H](O)O[C@@H]2O[C@@]3(C)CC[C@H]4[C@H](C)CC[C@@H]1[C@@]24OO3 [Artenimol] | ⊚ (one double circle (⊚) represents a 1.2-fold or greater increase) |  |  |  | 
OC1(c2ccc(Cl)c(C(F)(F)F)c2)CCN(CCCC(c2ccc(F)cc2)c2ccc(F)cc2)CC1 [Penfluridol] | ⊚ (one double circle (⊚) represents a 1.2-fold or greater increase) | ⊚ (one double circle (⊚) indicates maintenance of 1.0-1.2-fold) | ⊚ (one double circle (⊚) indicates maintenance of 1.0-1.2-fold) |  | 
COc1ccc2c(c1)c(CC(=O)OCC(=O)O)c(C)n2C(=O)c1ccc(Cl)cc1 [Acemetacin] | ⊚ (one double circle (⊚) represents a 1.2-fold or greater increase) |  |  |  | 
CC(CN(C)C)CN1c2ccccc2CCc2ccccc21 (stereo not drawn) [Trimipramine Maleate] | ⊚⊚ (two double circles (⊚⊚) in the COL17A1 expression level (control ratio) represent a 2.0-fold or greater increase in the expression level) | ⊚ (one double circle (⊚) indicates maintenance of 1.0-1.2-fold) | ⊚ (one double circle (⊚) indicates maintenance of 1.0-1.2-fold) |  | 
Clc1ccc(C(c2ccccc2Cl)C(Cl)Cl)cc1 (stereo not drawn) [Mitotane] |  |  |  | 0.98 | 
Cc1c(Cl)cccc1Nc1ccccc1C(=O)O [Tolfenamic Acid] | ⊚ (one double circle (⊚) represents a 1.2-fold or greater increase) |  |  |  | 
COc1cccc(-c2cc(=O)c3ccccc3o2)c1N [PD98059] |  |  |  | 0.84 | 
CC(=N)NCc1cccc(CN)c1 [1400 W] | ○ (one circle (0) represents a 1.0-1.2-fold maintenance) | ○ | ○ |  | 
Toremiphene citrate |  |  |  | 0.94 | 
CC(C)=CCC1=C(O)C(=O)c2ccccc2C1=O [Lapachol] |  |  |  |  | COL17A1 expression level (control ratio) (COL17A1; Table 2, human epidermal keratinocytes, 48 hours after addition of reagents): ⊚⊚ (two double circles (⊚⊚) in the COL17A1 expression level (control ratio) represent a 2.0-fold or greater increase in the expression level); Colony area (control ratio) ([1]; Table 2): ⊚ (one double circle (⊚) indicates maintenance of 1.0-1.2-fold); Colony number (control ratio) ([1]; Table 2): ⊚ (one double circle (⊚) indicates maintenance of 1.0-1.2-fold)
CN1C(=O)C(Cc2c[nH]c3ccccc23)NC1=S (stereo not drawn) [Necrostatin-1] | ⊚ (one double circle (⊚) represents a 1.2-fold or greater increase) | ⊚ (one double circle (⊚) indicates maintenance of 1.0-1.2-fold) | ⊚ (one double circle (⊚) indicates maintenance of 1.0-1.2-fold) |  | 

Molecule | COL17A1 expression level (control ratio) (COL17A1; [2]) | Colony area (control ratio) ([1]; Table 1) | Colony number (control ratio) ([1]; Table 1) | COL17A1 expression level (control ratio) (COL17A1; [3]) | further results
O=c1c2ccccc2[se]n1-c1ccccc1 [Ebselen] | ⊚ (one double circle (⊚) represents a 1.2-fold or greater increase) | ⊚ (one double circle (⊚) indicates maintenance of 1.0-1.2-fold) | ⊚ (one double circle (⊚) indicates maintenance of 1.0-1.2-fold) |  | 
Clc1ccccc1C(c1ccccc1)(c1ccccc1)n1ccnc1 [Clotrimazole] | ⊚ (one double circle (⊚) represents a 1.2-fold or greater increase) |  |  |  | 
COc1ccc(-c2coc3cc(O)cc(O)c3c2=O)cc1 [Biochanin A] | ⊚ (one double circle (⊚) represents a 1.2-fold or greater increase) | ○ | ○ |  | 
O=P1(N(CCCl)CCCl)NCCCO1 (stereo not drawn) [Cyclophosphamide hydrate] |  |  |  |  | COL17A1 expression level (control ratio) (COL17A1): 0.88
O=S(=O)(c1cccc2cnccc12)N1CCCNCC1 [Fasudil (HA-1077), Fasudil] | ⊚⊚ (two double circles (⊚⊚) in the COL17A1 expression level (control ratio) represent a 2.0-fold or greater increase in the expression level) | ⊚ (one double circle (⊚) indicates maintenance of 1.0-1.2-fold) | ⊚ (one double circle (⊚) indicates maintenance of 1.0-1.2-fold) |  | 
CC(=O)c1ccc2c(c1)Nc1ccccc1S2 [ML171] | ○ (one circle (0) represents a 1.0-1.2-fold maintenance) | ⊚ (one double circle (⊚) indicates maintenance of 1.0-1.2-fold) | ⊚ (one double circle (⊚) indicates maintenance of 1.0-1.2-fold) |  | 
C=C1C[C@@H]2[C@H](CC[C@]3(C)C(=O)CC[C@@H]23)[C@@]2(C)C=CC(=O)C=C12 [Exemestane] |  |  |  | 0.93 | 
O=P1(NCCCl)OCCCN1CCCl (stereo not drawn) [Ifosfamide] |  |  |  | 0.84 | 
Fc1ccc(C(c2ccc(F)cc2)N2CCN(C/C=C/c3ccccc3)CC2)cc1 [Flunarizine Hydrochloride] | ⊚ (one double circle (⊚) represents a 1.2-fold or greater increase) | ⊚ (one double circle (⊚) indicates maintenance of 1.0-1.2-fold) | ⊚ (one double circle (⊚) indicates maintenance of 1.0-1.2-fold) |  | 
Monensin Sodium | ⊚ (one double circle (⊚) represents a 1.2-fold or greater increase) |  |  |  | 
O=c1cc(-c2ccc(O)cc2)oc2cc(O)cc(O)c12 [Apigenin] | ⊚⊚ (two double circles (⊚⊚) in the COL17A1 expression level (control ratio) represent a 2.0-fold or greater increase in the expression level) | ○ | ○ |  | 
CC(=O)O.O=c1[nH]cc(F)c(=O)[nH]1 [Fluorouracil acetate] |  |  |  | 0.88 | 
CCCCOc1ccc(CC(=O)NO)cc1 [Bufexamac] | ⊚ (one double circle (⊚) represents a 1.2-fold or greater increase) |  |  |  | 
CCC(=O)O[C@H]1CC[C@H]2[C@@H]3CCC4=CC(=O)CC[C@]4(C)[C@H]3CC[C@]12C [Testosterone propionate] |  |  |  | 0.84 | 
N.N.[Cl][Pt][Cl] [Cisplatin] |  |  |  | 0.97 | 
Cc1ccc(-c2cc(C(F)(F)F)nn2-c2ccc(S(N)(=O)=O)cc2)cc1 [Celecoxib] | ⊚ (one double circle (⊚) represents a 1.2-fold or greater increase) | ⊚ (one double circle (⊚) indicates maintenance of 1.0-1.2-fold) | ⊚ (one double circle (⊚) indicates maintenance of 1.0-1.2-fold) |  | 
NC(=O)NO [Hydroxyurea] |  |  |  | 0.92 | 
S=c1nc[nH]c2nc[nH]c12 [Mercaptopurine] |  |  |  | 0.83 | 
CN(C)/N=N/c1[nH]cnc1C(N)=O [Dacarbazine] |  |  |  | 0.94 | 
COc1ccc(C[C@H](N)C(=O)N[C@H]2[C@@H](O)[C@H](n3cnc4c(N(C)C)ncnc43)O[C@@H]2CO)cc1 [Puromycin hydrochloride] |  |  |  | 0.85 | 
CN1C(C(=O)Nc2ccccn2)=C(O)c2sccc2S1(=O)=O [Tenoxicam] | ⊚ (one double circle (⊚) represents a 1.2-fold or greater increase) |  |  |  | 
Nc1ccn([C@@H]2O[C@H](CO)[C@@H](O)C2(F)F)c(=O)n1 [Gemcitabine] |  |  |  | 0.96 | 
O=NN(CCCl)C(=O)NCCCl [Carmustine] |  |  |  | 0.94 | 
